This is an account of results in patent publication US9550774B2, “Dihydropyrido pyrimidine compounds as autotaxin inhibitors” (Eli Lilly and Company, priority 2013, dated 2017).

The target of assay [1] is recombinant human autotaxin (Homo sapiens (Human), UniProt Q13822). Briefly: Inhibition of Autotaxin as Measured by Choline Release. Format: biochemical. The conditions noted are these: LPC 16:0 30 μM substrate, 37° C. for 1 hour, 4 parameter curve fit. As for the experimental part:
The purpose of this assay is to detect autotaxin inhibition using a choline release assay.
Test compound (10 mM stocks in 100% DMSO) is serially diluted in 100% DMSO resulting in 10 concentrations of 100× inhibitor in half area 96 well plates (Corning 3992). Each of these 10 wells in 100% DMSO is diluted 1:33.33 in assay buffer in round bottom 96 well plates (Fisher 12565502) resulting in 3× concentrations in well containing 3% DMSO. The assay buffer is 50 mM Tris pH8.0, 5 mM KCl, 1 mM CaCl2, 1 mM MgCl2, 0.01% TRITON™ X-100 (Sigma T9284) and 0.01% fatty acid free bovine serum albumin (Sigma A8806). A 20 μl aliquot of each 3× test compound is then added to black flat bottom 96 well plates (Corning 3991) in singlicate. A 20 μl aliquot per well of 3× recombinant human autotaxin, (Echelon, E-4000) (full length human autotaxin with a C-terminal His tag transfected into 293E cells and purified via nickel chelate and size exclusion chromatography) is then added to every well except for the no enzyme control wells. A 20 μl aliquot per well of assay buffer is added to the no enzyme control wells. […] The resorufin on the plates is measured with a SpectraMax Gemini EM fluorometer at excitation-emission wavelengths of 530-590 nm using SoftMax Pro 4.8 software. IC50s are calculated using 4 parameter curve fits. […]

The next assay deals with endogenous autotaxin (Homo sapiens (Human), UniProt Q13822). The assay can be described thus: Autotaxin Mediated Inhibition of LPA in the Presence of Human Plasma. Format: biochemical. Particulars: 90% pooled human plasma, 3 hours at 37° C., total LPA by mass spec. The source says: The following assay is intended to measure autoaxin mediated inhibition of LPA. This assay is a tool that can be used to identify autotaxin-mediated LPA inhibitor compounds when it is used to test compounds that have been identified as autotaxin inhibitors. LPA biosynthesis through autotaxin is believed to the source of LPA for LPA1 mediated neuropathic pain. Makoto Inoue, et. al, “Autotaxin, a synthetic enzyme of lysophosphatidic acid (LPA), mediates the induction of nerve-injured neuropathic pain”, Molecular Pain, 2008, 4:6. Inhibition of the autotaxin mediated LPA biosynthesis is supported by the results of this assay.
Units of plasma from healthy human female donors collected in sodium heparin (Lampire Biologicals) are pooled, aliquoted and stored at −80° C. […] A 400 μl aliquot of extraction buffer (50% methanol, 49.9% acetonitrile, 0.1% acetic acid) containing LPA internal standards (50 ng/ml D5 deuterium LPA 16:0 and 50 ng/ml D5 deuterium LPA 18:0) is added to each well and the total LPA in each sample is determined by mass spec analysis. Percent inhibition of LPA is calculated according to the following formula: 100−(3 hour plasma+test compound−0 hour plasma no test compound control)/(3 hour plasma no test compound control−0 hour plasma no test compound control)×100
[formula] IC50 values are calculated using 4 parameter curve fitting. […]

Molecules are shown by their SMILES.

The term IC50 denotes the concentration that gives 50% inhibition. Take `O=C(c1cc(-c2cnn[nH]2)ccn1)N1CCc2nc(NC3Cc4ccccc4C3)ncc2C1` [Example 9, [2-(indan-2-ylamino)-7,8-dihydro-5H-pyrido[4,3-d]pyrimidin-6-yl]-[4-(1H-triazol-5-yl)-2-pyridyl]methanone]: the IC50 in assay [1] is below 1.7 nM; on endogenous autotaxin it was 7 nM.

On to `O=C(c1cnn(Cc2c[nH]nn2)c1)N1CCc2nc(NC3Cc4ccccc4C3)ncc2C1` [Example 1, [2-(indan-2-ylamino)-7,8-dihydro-5H-pyrido[4,3-d]pyrimidin-6-yl]-[1-(1H-triazol-4-ylmethyl)pyrazol-4-yl]methanone], for which the IC50 in assay [1] was below 1.7 nM; on endogenous autotaxin, 5.4 nM.
